Laboratory results reported in US20250221963A1 (GH RESEARCH IRELAND LIMITED, priority 2022, published 2025).

Tests used:
[1] = Pharmacokinetics of 5-MeO-DMT and bufotenine after inhalation; format: in vivo, human
Procedure: Blood samples were obtained at 1; 2; 4; 7; 10; 15; 20; 30; 45 min and 1; 1.5; 2; 3; 4 hours after administration.
PK parameters were generated by algebraic analysis of the concentration versus time plots for each individual. The analysis was carried out using the software Phoenix WinNonlin 6.3.

[2] = system: Escherichia coli WP2 uvrA pKM101; test: Bacterial mutation test, Escherichia coli; format: cell-based; details: up to 5000 μg/plate, absence and presence of S-9
Procedure: These conditions included treatments at concentrations up to 5000 μg/plate (the maximum recommended concentration according to current regulatory guidelines), in the absence and in the presence of a rat liver metabolic activation system (S-9).

[3] = system: patients with treatment-resistant major depressive disorder (TRD); test: Phase 1/2 clinical trial of inhaled 5-MeO-DMT in TRD; details: for Patients with at least one ADR: Part A
Procedure: Patients were assigned to different groups. In the context of the present invention, the group who received a single, 12 mg dose and the group who underwent an intra-day individualized dosing regimen (IDR) that allowed for multiple, escalating doses (6 mg, 12 mg and 18 mg) within a single day, driven by the intensity of the patient-reported psychedelic experience are of interest.
The data gathered include the assessment of the treated patients against several scales including the Montgomery Åsberg Depression Rating Scale (MADRS) and the Brief Psychiatric Rating Scale (BPRS).
This trial was designed in two parts. Part A was an open-label, single-arm, single-dose Phase 1 trial with two dose levels (12 mg (n=4) and 18 mg (n=4)). […] The primary endpoint of Part B was to assess the effects on the severity of depression, as assessed by the proportion of patients in remission on day seven after dosing, defined as a MADRS total score of less than or equal to 10.

[4] = 12 mg n=4, 2 hours, baseline 16

COc1ccc2[nH]cc(CCN(C)C)c2c1 [5-MeO-DMT]
Detectability in the plasma ([1]; after 3 hours, 6, 12, 18 mg): no longer detectable
Accumulation upon repeated administration ([1]; repeated within 1 to 4 hours): No accumulation is observed
Induction of mutation [2]: did not induce mutation
MADRS Concentration Difficulties improvement ([3]; 12 mg n=4, 2 hours): 9 points
MADRS Inability to Feel improvement ([3]; 12 mg n=4, 2 hours): 7 points
MADRS Inner Tension improvement ([3]; 12 mg n=4, 2 hours): 11 points
MADRS Lassitude improvement ([3]; 12 mg n=4, 2 hours): 6 points
MADRS Pessimistic Thoughts improvement ([3]; 12 mg n=4, 2 hours): 8 points
MADRS Pessimistic Thoughts percentage improvement ([3]; 12 mg n=4, 2 hours): 50.00%
MADRS Suicidal Thoughts improvement ([3]; 12 mg n=4, 2 hours): 5 points
MADRS Suicidal Thoughts aggregated score ([3]; 12 mg n=4, 2 hours, baseline 8): 3
MADRS Inner Tension aggregated score ([3]; 12 mg n=4, 2 hours, baseline 13): 2
MADRS Concentration Difficulties aggregated score [3, 4]: 7
MADRS Inability to Feel aggregated score [3, 4]: 9
MADRS Lassitude aggregated score [3, 4]: 10
MADRS Pessimistic Thoughts aggregated score [3, 4]: 8
BPRS Anxiety improvement ([3]; 12 mg n=4, 3 hours): 14 points
BPRS Anxiety percentage improvement ([3]; 12 mg n=4, 3 hours): 56.00%
BPRS Blunted Affect improvement ([3]; 12 mg n=4, 3 hours): 3 points
BPRS Emotional Withdrawal improvement ([3]; 12 mg n=4, 3 hours): 2 points
BPRS Guilt Feelings improvement ([3]; 12 mg n=4, 3 hours): 9 points
BPRS Guilt Feelings percentage improvement ([3]; 12 mg n=4, 3 hours): 50.00%
BPRS Tension improvement ([3]; 12 mg n=4, 3 hours): 5 points
BPRS Blunted Affect aggregated score ([3]; 12 mg n=4, 3 hours, baseline 11): 8
BPRS Emotional Withdrawal aggregated score ([3]; 12 mg n=4, 3 hours, baseline 13): 11
BPRS Tension aggregated score ([3]; 12 mg n=4, 3 hours, baseline 14): 9
BPRS Guilt Feelings aggregated score ([3]; 12 mg n=4, 3 hours, baseline 18): 9
BPRS Anxiety aggregated score ([3]; 12 mg n=4, 3 hours, baseline 25): 11
Patients maintaining remission ([3]; Day 7): 7/8
MADRS Concentration Difficulties improvement ([3]; IDR n=8, 2 hours): 19 points
MADRS Inability to Feel improvement ([3]; IDR n=8, 2 hours): 24 points
MADRS Inner Tension improvement ([3]; IDR n=8, 2 hours): 15 points
MADRS Lassitude improvement ([3]; IDR n=8, 2 hours): 17 points
MADRS Pessimistic Thoughts improvement ([3]; IDR n=8, 2 hours): 21 points
MADRS Pessimistic Thoughts percentage improvement ([3]; IDR n=8, 2 hours): 75.00%
MADRS Suicidal Thoughts improvement ([3]; IDR n=8, 2 hours): 8 points
MADRS Suicidal Thoughts aggregated score ([3]; IDR n=8, 2 hours, baseline 11): 3
MADRS Inner Tension aggregated score ([3]; IDR n=8, 2 hours, baseline 26): 11
MADRS Lassitude aggregated score ([3]; IDR n=8, 2 hours, baseline 27): 10
MADRS Pessimistic Thoughts aggregated score ([3]; IDR n=8, 2 hours, baseline 28): 7
MADRS Concentration Difficulties aggregated score ([3]; IDR n=8, 2 hours, baseline 30): 11
MADRS Inability to Feel aggregated score ([3]; IDR n=8, 2 hours, baseline 36): 12
BPRS Anxiety improvement ([3]; IDR n=8, 3 hours): 18 points
BPRS Blunted Affect improvement ([3]; IDR n=8, 3 hours): 4 points
BPRS Emotional Withdrawal improvement ([3]; IDR n=8, 3 hours): 5 points
BPRS Guilt Feelings improvement ([3]; IDR n=8, 3 hours): 20 points
BPRS Tension improvement ([3]; IDR n=8, 3 hours): 5 points
BPRS Emotional Withdrawal aggregated score ([3]; IDR n=8, 3 hours, baseline 13): 8
BPRS Blunted Affect aggregated score ([3]; IDR n=8, 3 hours, baseline 15): 11
BPRS Tension aggregated score ([3]; IDR n=8, 3 hours, baseline 16): 11
BPRS Guilt Feelings aggregated score ([3]; IDR n=8, 3 hours, baseline 34): 14
BPRS Anxiety aggregated score ([3]; IDR n=8, 3 hours, baseline 37): 19
Safety laboratory analyses, vital signs, psychiatric safety assessments, cognitive function ([3]; Part A and Part B): No clinically significant changes
Patients with at least one ADR ([3]; 12 mg): 3 of 4
Patients with at least one ADR ([3]; 18 mg): 3 of 4
Patients with MADRS remission ([3]; Part B, IDR n=8, day seven): 87.5%
Mean MADRS change from baseline, percent ([3]; Part B, IDR, day seven): 76%
Patients achieving remission ([3]; day 1): 8/8
Patients achieving remission ([3]; within 2 h after dosing): 5/8
